According to patent publication US4288609A, “Quaternary ammonium derivatives of adamantane with antimicrobic activity” (priority 1976, dated 1981):
Where “and” joins values, the source holds several entries; their conditions need not be identical. Equal values may be shown once. Read-outs that look alike come from different tables or passages of the source.

What was measured:
Candida Albic. SKF 2270 = assay: MIC yeasts, Candida albicans (Table 2); format: cell-based; details: for MIC: Sabourand broth
Method: (§1) The method for evaluating the activity in vitro against bacteria, fungi and protozoa consists in introducing calculated quantities of the substance, the activity of which it is desired to test, into culture media already inoculated with a predetermined number of test germs.
(§2) After 24 or 48 hours of incubation at 30° or 37° C., according to the micro-organism being tested, it is possible to evaluate the growth of the same in the culture broth; in this manner the minimum concentration (M.I.C.) which inhibits the growth of the micro-organisms in vitro is determined.
Inoculation with Candida albicans or Candida pseudotropicalis was made by diluting cultures grown for 24 h at 30° C. (cellular density inoculated 10^3 /ml).
(§3) For the fungi Sabourand broth was used as a culture medium, whilst for the protozoa Kupferberg Trichomonas broth with 5% of horse serum was used.

Proteus Vulc. ATCC 881 = assay: M.I.C. in vitro, gram- Proteus Vulc. (Table 1); format: cell-based; details: read-out: M.I.C.
Method: as §1, §2
(§4) In table 1 there are recorded the M.I.C. values in γ/ml of the products subject of the present invention, against certain gram+ and gram- bacterial strains, some of which are pathogenic towards human beings.

[1] = system: gram+ and gram- bacterial strains; assay: Activity in vitro on gram+ and gram- bacteria, overall; format: cell-based; details: gram positive and gram negative strains, low concentrations
Method: as §1, §2, §4

Esch. Coli. SKF 12140 = assay: M.I.C. in vitro, gram- Esch. Coli (Table 1); format: cell-based, Escherichia Coli; details: Escherichia coli, read-out: M.I.C.
Method: as §1, §2, §4

Pseudom.Aer. ATCC 1014 = assay: M.I.C. in vitro, gram- Pseudom. Aer. (Table 1); format: cell-based, Pseudomonas Aeruginosa
Method: as §1, §2, §4

Diplococcus Pneum. ISM = assay: M.I.C. in vitro, gram+ Diplococcus Pneum. (Table 1); format: cell-based; details: read-out: M.I.C.
Method: as §1, §2, §4

Pseudomonas Aeruginosa = assay: Antibacterial activity in vivo with topical treatment (Table 5); parameters: species or system female CF1 albino mice; details: for animals alive on the 15th day / animals dead on the 15th day: 10 animals; for % survivors: topical, 15th day
Method: After their backs have been shaved, female CF1 albino mice weighing 18-22 g are scorched (under ether anaesthetic) for 15 seconds with a pad of brass previously immersed in boiling water (7-8% of the body surface). After 90 minutes there is applied to the scorched area 0.1 ml of a suspension of Pseudomonas Aeruginosa bacteria having 15% transmittance at 650 nm. The bacterial strain in question produces a high incidence of mortality, induced by septicemic diffusion from the point of infection. After 90 minutes, with the aid of a glass rod suitably flattened at one end, the preparation containing a known concentration of the compound under examination is applied locally. The treatment is continued for a total of six days (once per day). On the fifteenth day the percentage of survivors to the tested doses in recorded.
The carrier used for applying the compounds under examination is an aqueous 0.75% solution of carboxymethyl-cellulose. The concentrations of the compounds tested are 2, 1, 0.5 and 0.25% by weight.

[2] = system: Trichophyton Mentagrophytes Ist. Pasteur; assay: Speed of sterilising action, Trichophyton Mentagrophytes (Table 3); format: cell-based
Method: (§5) The strains, inoculants, culture broths and experimental methods are as already seen for calculating the M.I.C. in vitro. The antimicrobic substances were tested at concentrations of 0.1, 0.25, 0.5 and 1 g/l, the contact times taken into consideration are 0, 1, 2.5, 5, 7.5, 10, 15, 30 and 60 minutes.
(§6) The samples which at the 7th day of incubation still had no growth of micro-organisms which could be observed macroscopically and/or microscopically were considered sterile.
(§7) The results are recorded in Table 3 in terms of sterilization time expressed in minutes.

[3] = system: Trych. Mentagr. 1st.Pastuer; assay: MIC mildews, Trichophyton mentagrophytes (Table 2); format: cell-based; details: Sabourand broth
Method: as §1, §2
Inoculation with Trichophyton mentagrophytes and Microsporum canis was effected in a ratio of 1% of the volume of medium used.
as §3

Klens. Pneum. ISM = assay: M.I.C. in vitro, gram- Klens. Pneum. (Table 1); format: cell-based
Method: as §1, §2, §4

[4] = system: Candida Albicans SKF 2270; assay: Speed of sterilising action, Candida Albicans (Table 3); format: cell-based
Method: as §5, §6, §7

Trich. Foetus ISM 66/23 = assay: MIC protozoa, Trichomonas foetus (Table 2); format: cell-based; details: +10% serum (head); Kupferberg Trichomonas broth with 5% of horse serum
Method: as §1, §2
Inoculation with Trichomonas vaginalis and Trichomonas foetus, obtained from cultures transplanted every other day to make them lively, was effected in a ratio of 3.5% of the volume of medium used.
as §3

[5] = system: Trichophyton Mentagrophytes; assay: Topical activity upon dermatophytis from Trichophyton in cavies (Table 6); format: in vivo, Albino cavies; details: for evaluation of seriousness of infection (A.D.I.): average index
Method: Albino cavies of 250-300 g are infected, after depilation and scarification of a circular area of dorsal skin upon which there are supplied 0.1 ml of a suspension of microconidia of Trichophyton Mentagrophytes from the Pasteur Institute collection, obtained from a culture of 15 days upon Saboureaud agar. 24 Hours after infection topical treatment is started and is continued for two weeks (once per day).
The compounds to be tested are dissolved or suspended at the desired concentration, in a water-alcohol mixture (75/25 v/v) containing 0.75% by weight of carboxymethyl-cellulose (CMC). […] Each single application is carried out using 0.25 ml of the suspension or solution obtained as described above.
Fourteen days after infection the lesions are assessed. Assessment is carried out by attributing index numbers depending upon the seriousness of the lesions formed, as follows:
The substances under examination were tested at concentrations of 5 and 2.5% by weight.

[6] = system: Streptococ. Henclyt. 0203; assay: M.I.C. in vitro, gram+ Streptococ. Henclyt. (Table 1); format: cell-based
Method: as §1, §2, §4

CCCCCCCCCC[N+](C)(C)CCOC(=O)C12CC3CC(CC(C3)C1)C2 (single isomer, unassigned) [Example 1, n-Decyl-dimethyl-(1-adamantane-carboxy)-ethyl-ammonium bromide]
MIC (Candida Albic. SKF 2270; +10% serum): 10 mg/L
activity on Candida albicans, times greater than that of cetyl pyridine chloride (Candida Albic. SKF 2270; in the absence of serum): about 25 times
activity on Candida albicans, times higher than that of cetyl pyridine chloride (Candida Albic. SKF 2270; in the presence of 10% of horse serum): 5-10 times
MIC (Candida Albic. SKF 2270; without serum): 0.2 mg/L
MIC (Proteus Vulc. ATCC 881; +10% serum): 50 mg/L
MIC (Proteus Vulc. ATCC 881; without serum): 10 mg/L
antibacterial activity (in words) [1]: powerful antibacterial activity at low concentrations
MIC (Esch. Coli. SKF 12140; +10% serum): 50 mg/L
MIC (Esch. Coli. SKF 12140; without serum): 5 mg/L
MIC (Pseudom.Aer. ATCC 1014; Pseudomonas aeruginosa, ATCC1014, +10% serum, read-out: M.I.C.): 50 mg/L
M.I.C. (Pseudom.Aer. ATCC 1014; without serum): 20 µg/mL
MIC (Diplococcus Pneum. ISM; +10% serum): 5 mg/L
MIC (Diplococcus Pneum. ISM; without serum): 1 mg/L
animals alive on the 15th day (Pseudomonas Aeruginosa; 0.25% by weight): 5
animals dead on the 15th day (Pseudomonas Aeruginosa; 0.25% by weight): 5
% survivors (Pseudomonas Aeruginosa; 0.25% by weight): 50%
animals alive on the 15th day (Pseudomonas Aeruginosa; 0.5% by weight): 6
animals dead on the 15th day (Pseudomonas Aeruginosa; 0.5% by weight): 4
animals alive on the 15th day (Pseudomonas Aeruginosa; 1% by weight): 8
animals dead on the 15th day (Pseudomonas Aeruginosa; 1% by weight): 2
% survivors (Pseudomonas Aeruginosa; 1% by weight): 80%
animals alive on the 15th day (Pseudomonas Aeruginosa; 2% by weight): 8
animals dead on the 15th day (Pseudomonas Aeruginosa; 2% by weight): 2
% survivors (Pseudomonas Aeruginosa; 2% by weight): 80%
efficacy in vivo (in words) (Pseudomonas Aeruginosa; other concentrations considered): secure efficacy
sterilization time ([2]; 0.1 g/l): 60 min
sterilization time ([2]; 0.25 g/l): 30 min
sterilization time ([2]; 0.5 g/l): 15 min
sterilization time ([2]; 1 g/l): 5 min
MIC ([3]; +10% serum): 5 mg/L
MIC ([3]; without serum): 0.1 mg/L
MIC (Klens. Pneum. ISM; +10% serum, read-out: M.I.C.): 50 mg/L
M.I.C. (Klens. Pneum. ISM; without serum): 5 µg/mL
sterilization time ([4]; 0.1 g/l): 30 min
sterilization time ([4]; 0.25 g/l): 2.5 min
sterilization time ([4]; 0.5 g/l): 1 min
sterilization time ([4]; 1 g/l): 1 min
MIC (Trich. Foetus ISM 66/23): 2 mg/L
A.D.I. (% of control group) ([5]; 2.5% by weight): 31.09%
healing % (100-A.D.I. %) ([5]; 2.5% by weight): 68.91%
evaluation of seriousness of infection (A.D.I.) ([5]; 2.5% by weight): 0.83
A.D.I. (% of control group) ([5]; 5% by weight): 12.36%
healing % (100-A.D.I. %) ([5]; 5% by weight): 87.64% and ~90%
evaluation of seriousness of infection (A.D.I.) ([5]; 5% by weight): 0.33
in vivo activity against Trichophyton Mentagrophytes (in words) ([5]; in vivo): excellent "in vivo" activity against Trichophyton Mentagrophytes
M.I.C. ([6]; +10% serum): 0.1 µg/mL
MIC ([6]; without serum, read-out: M.I.C.): < 0.1 mg/L
